Assay [1] concerns the target T1, Human GPR120 short form (Homo sapiens, UniProt Q5NUL3).
T1 construct: expressed in transfected cells
T1 sequence (Q5NUL3 1-361): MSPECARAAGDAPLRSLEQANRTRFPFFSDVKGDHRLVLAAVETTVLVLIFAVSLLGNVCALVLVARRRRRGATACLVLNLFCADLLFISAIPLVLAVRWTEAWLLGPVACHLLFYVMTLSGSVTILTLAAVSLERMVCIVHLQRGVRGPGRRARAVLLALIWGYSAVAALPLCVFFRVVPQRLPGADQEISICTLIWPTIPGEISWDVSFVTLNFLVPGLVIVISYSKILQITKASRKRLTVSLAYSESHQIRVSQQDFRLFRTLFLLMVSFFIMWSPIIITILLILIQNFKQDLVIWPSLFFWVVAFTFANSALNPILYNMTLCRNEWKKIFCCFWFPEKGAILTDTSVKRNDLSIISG
Briefly: Human GPR120 calcium flux assay, Procedure Calcium B. The assay is classed as cell-based. Particulars: HEK-293 cells expressing human GPR120 short form, 4200 cells/well, FLIPR. The source says:
(§1) This in vitro assay serves to assess test compound agonist activity against the short splice variant (SVS with Accession number NM_001195755.1 confirmed by sequencing data) of the GPR120 receptor. The Human Short splice variant #2 (NM_001195755.1) is missing an in-frame coding exon compared to variant 1 (the Human Long splice variant NM_181745.3), resulting in a shorter isoform (GPR120-S) lacking a 16 aa protein segment compared to isoform GPR120-L. The assay platform utilizes HEK-293 cells stably transfected to express the Human GPR120 short form. These cells are first loaded with the Ca^+2 sensitive dye, Fluo-4 NW. Upon stimulation, intracellular released Ca^+2 can bind to the dye and alter its fluorescence intensity. This increase in fluorescence signal, and thus the flux in intracellular [Ca^2+], is detected and quantitated by fluorescence imaging using a FLIPR reader. The effect of the agonist is measured as a function of concentration and used to calculate an EC50 based upon a response curve.
In this procedure 4200 cells/well were employed.
(§2) A Human GPR120 clone (Genbank accession number NM_001195755.1) was placed into the pcDNA3.1 mammalian expression vector carrying the neomycin resistance gene. A stable mammalian cell was generated by placing the above clone into a HEK293 background. Clonal cells responding to long chain fatty acids had expression levels of GPR120 confirmed by RT-qPCR. Human HEK-GPR120 cells were cultured in Dulbecco's Modified Eagle's Medium (DMEM)/F12 medium supplemented with 10% fetal bovine serum (FBS), 1% L-Glutamine and 1% penicillin/streptomycin and 0.5 mg/ml G-418. Cells were split 2 times a week to keep the cells in the log-phase growth.
(§3) In preparation for the assay, HEK cells stably transfected with Human GPR120 (2.5K cells per well in 25 uL growth medium) were seeded into 384-well plates and then incubated overnight (37° C., 5% CO2). The next day, the media was changed to 20 μl assay buffer and the cell starved for 1 h at 37° C. The dye loading solution (2× dye) was prepared using 10 ml assay buffer, 100 μl of 250 mM probenecid, 1 bottle of Component A, and 20 μl of dye in DMSO. Twenty μl of the 2× dye loading buffer was then added to each well. The plates were incubated at 37° C. for 30 min, then at room temperature for an additional 15 minutes, before performing the assay on FLIPR.
(§4) Test compounds were prepared in assay buffer (2 μl of test compound+198 μl assay buffer, final DMSO in assay plate is 0.2%) at the desired concentration, more particularly at 100 μM, 50 μM, 25 μM, 12.5 μM, 6.25 μM, 3.125 μM, 1.562 μM, 0.781 μM, 0.391 μM, 0.195 μM, 0.098 μM, 0.049 μM, 0.024 μM and 0.012 μM.
(§5) The assay was performed on a FLIPR plate reader using the following parameters. Baseline was read for 10 seconds at 1 sec intervals. The program was set to transfer 10 μL of ligand from compound plate to cell plate after baseline reading. Aspiration was executed at: 10 μl/sec speed, 4.6 μl height; Dispensing was executed at: 30 μl/sec speed, 45 μl height. After compound addition, each well was read for 300 sec, with measurements collected at 1 sec intervals.
(§6) The kinetic data from the FLIPR was based upon a 5 minute window for data collection. The fluorescence of each sample well was used for individual calculations of a normalized RFU value, which was defined as maximum response minus the minimum response. The normalized fluorescence reading (RFU) was calculated as follows: RFU=Fmax−Fmin
(§7) The data were fitted to a sigmoidal dose-response curve with a variable Hill slope (<2) using nonlinear regression with GraphPad Prism 5.0 to calculate the EC50 values. The Fitting Equation was: Y=Bottom+(Top−Bottom)/(1+10^((LogEC50−X)*HillSlope)), where X is the log of the concentration and Y is the response.
In general terms: Calcium assays in cells follow changes in intracellular calcium, usually with a dye or a luminescent sensor.

For assay [2], the target named is T1, Human GPR120 short form. Briefly: Human GPR120 calcium flux assay, Procedure Calcium A. In kind it is cell-based. Particulars: HEK-293 cells expressing human GPR120 short form, 2500 cells/well, FLIPR.
Description: as §1
In this procedure 2500 cells/well were employed.
as §2, §3, §4, §5, §6, §7

Broadly, the EC50 is the concentration at which the effect is half-maximal. On to `Cc1cc(CCC(=O)O)ccc1OCc1c(C(F)(F)F)ccn1-c1cccc(F)c1` [Compound 88, 3-(4-{[1-(3-Fluorophenyl)-3-(trifluoromethyl)-1H-pyrrol-2-yl]methoxy}-3-methylphenyl)propanoic acid], for which the concentration for a half-maximal effect (EC50) at Human GPR120 short form [1] is 404 nM.

For `CCc1ccc(-n2ccc(C(F)(F)F)c2COc2ccc(CCCO)c(F)c2F)cn1` [Compound 54, 3-(4-[[1-(6-ethylpyridin-3-yl)-3-(trifluoromethyl)-1H-pyrrol-2-yl]methoxy]-2,3-difluorophenyl)propan-1-ol], the results for the EC50 on Human GPR120 short form [2] and on Human GPR120 short form [1] were 497 nM and 115 nM, respectively.

As to `Cc1c(CCC(=O)O)ccc(OCc2c(C(F)(F)F)ccn2-c2ccc(F)cc2)c1C` [Compound 83, 3-(4-{[1-(4-Fluorophenyl)-3-(trifluoromethyl)-1H-pyrrol-2-yl]methoxy}-2,3-dimethylphenyl)propanoic acid], on Human GPR120 short form [1], the EC50 was 346 nM.

Regarding `CCc1ccc(-n2ccc(C(F)(F)F)c2COc2ccc(CCCO)c(F)c2F)cc1` [Compound 41, 3-(4-[[1-(4-ethylphenyl)-3-(trifluoromethyl)-1H-pyrrol-2-yl]methoxy]-2,3-difluorophenyl)propan-1-ol], the EC50 came to 1260 nM at Human GPR120 short form [2] and 247 nM at Human GPR120 short form [1].

Turning to `O=C(O)CCc1cc(F)c(OCc2c(C(F)(F)F)ccn2-c2ccc(F)cc2)c(F)c1` [Compound 87, 3-(3,5-Difluoro-4-{[1-(4-fluorophenyl)-3-(trifluoromethyl)-1H-pyrrol-2-yl]methoxy}phenyl)propanoic acid], the concentration giving a half-maximal response (EC50) on Human GPR120 short form [1] is 134 nM.

With `Cc1c(CCCO)ccc(OCc2c(Cl)ccn2-c2ccc(Cl)cc2)c1C` [Compound 7, 3-(4-{[3-Chloro-1-(4-chlorophenyl)-1H-pyrrol-2-yl]methoxy}-2,3-dimethylphenyl)propan-1-ol], the 50% effective concentration (EC50) on Human GPR120 short form [2] is 1730 nM; at Human GPR120 short form [1], 1170 nM.

With `O=C(O)CCc1ccc(OCc2c(C(F)(F)F)ccn2-c2cccc(F)c2)cc1Cl` [Compound 79, 3-(2-Chloro-4-{[1-(3-fluorophenyl)-3-(trifluoromethyl)-1H-pyrrol-2-yl]methoxy}phenyl)propanoic acid], the EC50 at Human GPR120 short form [1] was determined as 998 nM.

For `COc1ccc(-n2ccc(C(F)(F)F)c2COc2c(F)cc(CCCO)cc2F)cn1` [Compound 52, 3-(3,5-difluoro-4-[[1-(6-methoxypyridin-3-yl)-3-(trifluoromethyl)-1H-pyrrol-2-yl]methoxy]phenyl)propan-1-ol], the values for the EC50 at Human GPR120 short form [2] and at Human GPR120 short form [1] were 285 nM and 71 nM, respectively.

Take `O=C(O)CCc1cc(F)c(OCc2c(C(F)(F)C(F)(F)F)ccn2-c2ccc(Cl)cc2)c(F)c1` [Compound 63, 3-(4-((1-(4-chlorophenyl)-3-(perfluoroethyl)-1H-pyrrol-2-yl)methoxy)-3,5-difluorophenyl)propanoic acid]: the EC50 at Human GPR120 short form [1] was 1150 nM.

With `Cc1c(CCC(=O)O)ccc(OCc2c(C#N)ccn2-c2ccc(Cl)cc2)c1C` [Compound 12, 3-(4-{[1-(4-Chlorophenyl)-3-cyano-1H-pyrrol-2-yl]methoxy}-2,3-dimethylphenyl)propanoic acid], the EC50 at Human GPR120 short form [2] came to 4260 nM; at Human GPR120 short form [1] it was 1140 nM.

Consider `COc1ccc(-n2ccc(C(F)(F)F)c2COc2ccc(CCCO)c(F)c2F)cn1` [Compound 50, 3-(2,3-difluoro-4-[[1-(6-methoxypyridin-3-yl)-3-(trifluoromethyl)-1H-pyrrol-2-yl]methoxy]phenyl)propan-1-ol], for which the EC50 at Human GPR120 short form [2] was found to be 395 nM; on Human GPR120 short form [1], 58 nM.

As for `CCc1ccc(-n2ccc(C(F)(F)F)c2COc2ccc(CCCO)c(C)c2C)cc1` [Compound 40, 3-(4-[[1-(4-ethylphenyl)-3-(trifluoromethyl)-1H-pyrrol-2-yl]methoxy]-2,3-dimethylphenyl)propan-1-ol], the EC50 at Human GPR120 short form [2] came out at 1920 nM; on Human GPR120 short form [1], 896 nM.

Turning to `CCc1ccc(-n2cccc2COc2ccc(CCC(=O)O)c(C)c2C)cc1` [Compound 2, 3-(4-{[1-(4-Ethylphenyl)-1H-pyrrol-2-yl]methoxy}-2,3-dimethylphenyl)propanoic acid], the concentration for a half-maximal effect (EC50) on Human GPR120 short form [2] is above 20000 nM.

Regarding `O=C(O)CCc1ccc(OCc2cccn2-c2ccc(Cl)cc2)c(F)c1F` [Compound 4, 3-(4-{[1-(4-Chlorophenyl)-1H-pyrrol-2-yl]methoxy}-2,3-difluorophenyl)propanoic acid], the concentration giving a half-maximal response (EC50) at Human GPR120 short form [2] is above 20000 nM.

`Cc1c(CCC(=O)O)ccc(OCc2c(C(F)(F)F)ccn2-c2ccc(Br)cc2)c1C` [Compound 23, 3-(4-{[1-(4-Bromophenyl)-3-(trifluoromethyl)-1H-pyrrol-2-yl]methoxy}-2,3-dimethylphenyl)propanoic acid]: the half-maximal effective concentration (EC50) on Human GPR120 short form [2] is 1110 nM; on Human GPR120 short form [1], 199 nM.

For the compound `Cc1c(CCC(=O)O)ccc(OCc2c(Br)ccn2-c2ccc(Cl)cc2)c1C` [Compound 14, 3-(4-{[3-Bromo-1-(4-chlorophenyl)-1H-pyrrol-2-yl]methoxy}-2,3-dimethylphenyl)propanoic acid], the concentration giving a half-maximal response (EC50) at Human GPR120 short form [2] worked out at 2890 nM; at Human GPR120 short form [1] it was 1400 nM.

On to `O=C(O)CCc1cc(F)c(OCc2c(C(F)(F)F)ccn2-c2cccc(F)c2)c(F)c1` [Compound 85, 3-(3,5-Difluoro-4-{[1-(3-fluorophenyl)-3-(trifluoromethyl)-1H-pyrrol-2-yl]methoxy}phenyl)propanoic acid], for which the EC50 on Human GPR120 short form [1] was determined as 448 nM.

In the case of `O=C(O)CCc1ccc(OCc2c(C(F)(F)F)ccn2-c2cccc(F)c2)cc1C(F)(F)F` [Compound 81, 3-[4-{[1-(3-Fluorophenyl)-3-(trifluoromethyl)-1H-pyrrol-2-yl]methoxy}-2-(trifluoromethyl)phenyl]propanoic acid], the EC50 at Human GPR120 short form [1] was 675 nM.

Take `Cc1c(CCC(=O)O)ccc(OCc2c(C(F)(F)F)ccn2-c2cccc(F)c2)c1C` [Compound 84, 3-(4-{[1-(3-Fluorophenyl)-3-(trifluoromethyl)-1H-pyrrol-2-yl]methoxy}-2,3-dimethylphenyl)propanoic acid]: the half-maximal effective concentration (EC50) on Human GPR120 short form [1] is 489 nM.

With `Cc1cc(CCC(=O)O)ccc1OCc1c(C(F)(F)F)ccn1-c1ccc(F)cc1` [Compound 86, 3-(4-{[1-(4-Fluorophenyl)-3-(trifluoromethyl)-1H-pyrrol-2-yl]methoxy}-3-methylphenyl)propanoic acid], the EC50 at Human GPR120 short form [1] amounted to 280 nM.

Take `O=C(O)CCc1ccc(OCc2c(C(F)(F)F)ccn2-c2ccc(F)cc2)cc1Cl` [Compound 80, 3-(2-Chloro-4-{[1-(4-fluorophenyl)-3-(trifluoromethyl)-1H-pyrrol-2-yl]methoxy}phenyl)propanoic acid]: at Human GPR120 short form [1], the EC50 is 923 nM.

Regarding `O=C(O)CCc1ccc(OCc2c(C(F)(F)F)ccn2-c2ccc(F)cc2)cc1C(F)(F)F` [Compound 82, 3-[4-{[1-(4-Fluorophenyl)-3-(trifluoromethyl)-1H-pyrrol-2-yl]methoxy}-2-(trifluoromethyl)phenyl]propanoic acid], the 50% effective concentration (EC50) at Human GPR120 short form [1] was found to be 834 nM.
